Experimental data reported in ChEMBL document CHEMBL1155594, “Absolute configuration and antiprotozoal activity of minquartynoic acid” (J Nat Prod, 2000).
In brackets after ≈: the same amount, converted by molar mass.

Legend:
[1] = test system: Plasmodium falciparum; assay: Antiplasmodial activity against chloroquine-sensitive Plasmodium falciparum 3D7; type: functional, organism-based
[2] = Inhibition of phytohemagglutininin A-induced proliferation in human lymphocytes assessed as radiolabeled thymidine uptake; type: cell-based; settings: Lymphocyte
[3] = test system: Leishmania major; assay: Antileishmanial activity against Leishmania major promastigotes after 20 hrs; type: functional, organism-based

IC50 [1]: 3 µg/mL (≈ 10.6 µM)
IC50 [3]: 1.4 µg/mL (≈ 4.92 µM)
Compound: C[C@H](O)C#CC#CC#CC#CCCCCCCCC(=O)O [MINQUARTYNOIC ACID]
IC50 [2]: 5.3 µg/mL (≈ 18.6 µM)
